Source: patent US20240261443A1, “COMPOUNDS AND COMPOSITIONS USEFUL AS RADIOTRACERS FOR IMAGING OF REACTIVE OXIDATIVE SPECIES” (Wake Forest University Health Sciences, priority 2019, published 2024)

Columns and labels:
PC3 tumors [1] = assay: Standard biodistribution in PC3 tumor-bearing mice; type: in vivo
Description: Athymic nude mice (Taconic Farms) were housed in a pathogen-free facility of the Animal Research Program at Wake Forest School of Medicine under a 12:12-h light/dark cycle and fed ad libitum. All animal experiments were conducted under IACUC approved protocols in compliance with the guidelines for the care and use of research animals established by Wake Forest Medical School Animal Studies Committee. PC3 cells (1×10^5 cells suspended in 10 μL matrigel) were implanted in the left flank of nude mice (25-30 g) as described previously. Mice bearing subcutaneous human PCa PC3 tumors were separated into two groups for baseline and blockade studies (n=3/group) and underwent microPET imaging under ˜1% isoflurane-oxygen anesthesia (Reuter et al., Oxidative stress, inflammation, and cancer: How are they linked? Free radical biology & medicine. 2010; 49:1603-16. doi:10.1016/j.freeradbiomed; Sosa et al., Oxidative stress and cancer: An overview. Ageing Research Reviews. 2013; 12:376-90; Singh et al., Silibinin suppresses in vivo growth of human prostate carcinoma PC-3 tumor xenograft. Carcinogenesis. 2007; 28:2567-74). Mice were intravenously injected with ˜100±10 μCi of [^18F]KS1 and 45 min later were scanned for 20 min using a TriFoil microPET scanner. KS1 (15 mg/kg) was used as a blocking agent and was injected 45 min before the radiotracer injection. Standard biodistribution studies were conducted in mice bearing PCa tumors to confirm in vivo binding of [^18F]KS1. Mice were intravenously injected with [^18F]KS1 (˜100 μCi), and euthanized after 30 min and 60 min of tracer injections (3 mice/time point). Samples of tumor, blood, brain, heart, lung, liver, spleen, pancreas, kidney, muscle and bone were harvested, weighed, and gamma counted with a standard dilution of the injectate (Chu et al., Development of a PET Radiotracer for Noninvasive Imaging of the Reactive Oxygen Species, Superoxide, in vivo. Organic & biomolecular chemistry. 2014; 12:4421-31; Sai et al., Radiolabeling and initial biological evaluation of [(18)F]KBM-1 for imaging RAR-α receptors in neuroblastoma. Bioorganic & medicinal chemistry letters. 2017; 27:1425-7; Kumar et al., Radiosynthesis and in Vivo Evaluation of [11C]MPC-6827, the First Brain Penetrant Microtubule PET Ligand. Journal of Medicinal Chemistry. 2018; 61:2118-23). The percentage of the injected dose per gram of tissue (% ID/g) was calculated.

PC3 tumors [2] = assay: microPET imaging in PC3 tumor-bearing mice; type: in vivo; conditions: ROI analysis
SCC-61 cell line (HNSCC) = assay: MTT cytotoxicity IC50 assay, SCC-61; type: cell-based, human; conditions: Homo sapiens, SCC-61, MTT
Description: (§1) The cells were seeded at density 5×10^3 cells/well. After 24 h pre-incubation period, cells were treated with 0.01 mM to 2.0 mM of freshly prepared KS1 and KS2 along with ascorbate (n=3) for 48 h. 0.2% of DMSO served as vehicle control. After 48 h, the solutions were removed from all plates and MTT assays performed following the published protocols. IC50 values are presented as mean±SD from at least three independent experiments.
There is growing evidence for a therapeutic role of ascorbate against several cancers (Creagan et al., Failure of High-Dose Vitamin C (Ascorbic Acid) Therapy to Benefit Patients with Advanced Cancer. New England Journal of Medicine 1979, 301 (13), 687-690; Chen et al., Pharmacologic ascorbic acid concentrations selectively kill cancer cells: action as a pro-drug to deliver hydrogen peroxide to tissues. Proceedings of the National Academy of Sciences of the United States of America 2005, 102 (38), 13604-13609; Prasad et al., High Doses of Multiple Antioxidant Vitamins: Essential Ingredients in Improving the Efficacy of Standard Cancer Therapy. Journal of the American College of Nutrition 1999, 18 (1), 13-25). Pharmacologic doses of ascorbate (oral and/or intravenous) could increase the effectiveness of cancer chemotherapy in many solid cancer therapies (López-Lizaro, Dual role of hydrogen peroxide in cancer: Possible relevance to cancer chemoprevention and therapy. Cancer Letters 2007, 252 (1), 1-8; Li et al., New Developments and Novel Therapeutic Perspectives for Vitamin C. The Journal of Nutrition 2007, 137 (10), 2171-2184; Klimant et al., Intravenous vitamin C in the supportive care of cancer patients: a review and rational approach. Current Oncology 2018, 25 (2), 139-148. The primary objective of this experiment was to determine the cytotoxic effects of KS1 at pharmacological concentrations. Cancer cell lines were selected based on their high ROS implications. […] These cell lines have been studied extensively with ascorbic acid treatments (Schoenfeld et al., O(2)(·−) and H(2)O(2)-Mediated Disruption of Fe Metabolism Causes the Differential Susceptibility of NSCLC and GBM Cancer Cells to Pharmacological Ascorbate. Cancer Cell 2017, 31 (4), 487-500.e8; Chen et al., Modulators of Redox Metabolism in Head and Neck Cancer. Antioxidants & Redox Signaling 2017, 29 (16), 1660-1690; Khandrika et al., Oxidative stress in prostate cancer. Cancer Lett 2009, 282 (2), 125-136.

[3] = system: SCC-61, G48, MD3-MB-231 and PC3 cancer cell lines; assay: MTT assay, potency versus ascorbate across patient-derived cancer cell lines; type: cell-based, human; conditions: Example 13; SCC-61, PC3, and MD3-MB-231 cells
Description: as §1
There is growing evidence for a therapeutic role of ascorbate against several cancers (Creagan et al., Failure of High-Dose Vitamin C (Ascorbic Acid) Therapy to Benefit Patients with Advanced Cancer. New England Journal of Medicine 1979, 301 (13), 687-690; Chen et al., Pharmacologic ascorbic acid concentrations selectively kill cancer cells: action as a pro-drug to deliver hydrogen peroxide to tissues. Proceedings of the National Academy of Sciences of the United States of America 2005, 102 (38), 13604-13609; Prasad et al., High Doses of Multiple Antioxidant Vitamins: Essential Ingredients in Improving the Efficacy of Standard Cancer Therapy. Journal of the American College of Nutrition 1999, 18 (1), 13-25). […]

increased tumor uptake from 30 min to 60 min (PC3 tumors [1]; 30 to 60 min post injection)	tumor: muscle (target: non-target) ratio (PC3 tumors [1]; 30 min)	bone uptake (PC3 tumors [1]; 30 min post injection)	tumor uptake (PC3 tumors [1]; 30 min post injection)	tumor: muscle (target: non-target) ratio (PC3 tumors [1]; 60 min)	bone uptake (PC3 tumors [1]; 60 min post injection)	tumor uptake (PC3 tumors [1]; 60 min post injection)	increase in the tumor: muscle ratio (PC3 tumors [1]; from 30 min to 60 min)	Compound	tumor uptake with nonradioactive KS1 pretreatment, lower than baseline (PC3 tumors [2]; KS1 15 mg/kg 45 min before tracer)	tumor uptake on mPET scans (PC3 tumors [2]; baseline)	IC50 (SCC-61 cell line (HNSCC); Example 7, 48 h)	IC50 (SCC-61 cell line (HNSCC); Example 13)	selectivity (potency) versus ascorbate [3]
~1.7 fold	4.31	1.741±0.71 % ID/g	4.23±0.531 % ID/g	8.84	1.381±0.561 % ID/g	6.81±0.33 % ID/g	> 50%	O=C1O/C(=C/CCl)C(O)=C1OCc1ccc(OCC[18F])cc1 [[^18F]KS1]	~3 fold	high tumor uptake	–	–	–
–	–	–	–	–	–	–	–	O=C1O/C(=C/CCl)C(O)=C1OCc1ccc(OCCF)cc1 [KS1, (E)-5-(2-chloroethylidene)-3-(4-(2-fluoroethoxy)benzyloxy)-4-hydroxyfuran-2(5H)-one]	–	–	288 µM	718 µM	1.6 to 2.5 fold
